Test results as given in patent publication EP0107907A2, “Improvements in or relating to immunomodulating agents” (ELI LILLY AND COMPANY, priority 1982, dated 1984).

Test system: murine macrophages
Test: In vitro activation of murine macrophages (macrophage-mediated tumor cytotoxicity against P815 cells)
Format: cell-based
Conditions: for immunomodulatory activity: in the in vitro assay; for Percent Macrophage Cytotoxicity: 48 hours
Method: In one procedure, the ability of the compounds to activate murine macrophages in vitro was determined. Peritoneal macrophages were exposed to a compound of formula 1, 2, or 3 simultaneously with the addition of target cells. Tumor cytotoxicity of these treated macrophages was determined 48 hours later by trypan blue enumeration. The percentage of growth inhibition of P815 cells due to composition-mediated macrophage activation was calculated by comparison to that of P815 cells grown in the.presence of macrophages exposed to buffer.

Row | Compound | immunomodulatory activity | Percent Macrophage Cytotoxicity (Fosfomycin 10 µg/ml, Experiment 1) [%] | Percent Macrophage Cytotoxicity (Fosfomycin 10 µg/ml, Experiment 2) [%] | Percent Macrophage Cytotoxicity (Fosfomycin 100 µg/ml, Experiment 1) [%] | Percent Macrophage Cytotoxicity (Fosfomycin 100 µg/ml, Experiment 2) [%]
1 | O=CN(O)CCCP(=O)(O)O [fosmidomycin, reference compound] | did not exhibit immunomodulatory activity | – | – | – | –
2 | C[C@@H]1O[C@@H]1P(=O)(O)O [Fosfomycin, reference compound] | – | 49 | 11 | 47 | 30
3 | C[C@H](N)C(=O)N[C@@H](C)P(=O)(O)O [alaphosphin, L-alanyl-L-1-aminb-- ethylphosphonic acid, reference compound] | did not exhibit immunomodulatory activity | – | – | – | –
